Test results: ChEMBL document CHEMBL1614629, “Extrapolation of human pharmacokinetic parameters from rat, dog, and monkey data: Molecular properties associated with extrapolative success or failure” (J Pharm Sci, 2005)

Assays:
[1] = Volume of distribution at steady state in dog after iv administration; type: ADME, organism-based, Canis lupus familiaris; settings: in vivo, read-out: Vdss
[2] = Volume of distribution at steady state in rat after iv administration; type: ADME, organism-based; settings: in vivo
[3] = Clearance in human after iv administration; type: ADME, organism-based; settings: in vivo
[4] = Volume of distribution at steady state in human after iv administration; type: ADME, organism-based; settings: in vivo, read-out: Vdss
[5] = Clearance in monkey after iv administration; type: ADME, organism-based; settings: macaca, in vivo
[6] = Clearance in dog after iv administration; type: ADME, organism-based, Canis lupus familiaris; settings: in vivo
[7] = Volume of distribution at steady state in monkey after iv administration; type: ADME, organism-based; settings: macaca, in vivo, read-out: Vdss
[8] = Clearance in rat after iv administration; type: ADME, organism-based; settings: in vivo

Compound | Vd [1] | Vdss [2] | clearance [3] | Vd [4] | clearance [5] | clearance [6] | Vd [7] | clearance [8]
CO/N=C(\C(=O)N[C@@H]1C(=O)N2C(C(=O)[O-])=C(C[n+]3ccn4ncccc43)CS[C@H]12)c1nsc(N)n1 [CEFOZOPRAN] | 0.21 L/kg | 0.2 L/kg | 1.5 mL/min/kg | 0.27 L/kg | 1.9 mL/min/kg | 3 mL/min/kg | 0.2 L/kg | 9.4 mL/min/kg
Cc1c(C)c2c(c(C)c1O)CCC(C)(COc1ccc(CC3SC(=O)NC3=O)cc1)O2 (stereo not given) [TROGLITAZONE] | 0.77 L/kg | 1 L/kg | 3.5 mL/min/kg | 0.71 L/kg | 8.3 mL/min/kg | 6.6 mL/min/kg | 0.71 L/kg | 22 mL/min/kg
O=C(O)Cc1ccccc1Nc1c(Cl)cccc1Cl [DICLOFENAC] | 0.23 L/kg | 0.75 L/kg | 4.2 mL/min/kg | 0.17 L/kg | 8.7 mL/min/kg | 1.6 mL/min/kg | 0.17 L/kg | 9.4 mL/min/kg
Nc1nc(/C(=N/O)C(=O)N[C@@H]2C(=O)N3C(C(=O)O)=C(/C=C4\CCN(CC(F)(F)F)C4=O)CS[C@H]23)cs1 [RO 25-6833] | 0.24 L/kg | 0.16 L/kg | 0.38 mL/min/kg | 0.12 L/kg | 0.78 mL/min/kg | 2.7 mL/min/kg | 0.12 L/kg | 0.95 mL/min/kg
CCCCCNC(=O)c1coc([C@H]2[C@@H](Cc3ccccc3CCC(=O)O)[C@@H]3CC[C@H]2O3)n1 [IFETROBAN] | 11 L/kg | 2.8 L/kg | 6.4 mL/min/kg | 4.4 L/kg | 19 mL/min/kg | 65 mL/min/kg | 5.5 L/kg | 88 mL/min/kg
COc1cccc2c1C(=O)c1c(O)c3c(c(O)c1C2=O)C[C@@](O)(C(=O)CO)C[C@@H]3O[C@H]1C[C@H](N)[C@H](O)[C@H](C)O1 [DOXORUBICIN] | 44 L/kg | 25 L/kg | 17 mL/min/kg | 25 L/kg | 28 mL/min/kg | 17 mL/min/kg | 24 L/kg | 34 mL/min/kg
C#C[C@]1(O)CC[C@H]2[C@@H]3CCc4cc(O)ccc4[C@H]3CC[C@@]21C [ETHINYL ESTRADIOL] | 17 L/kg | 73 L/kg | 5 mL/min/kg | 18 L/kg | 17 mL/min/kg | 25 mL/min/kg | 6 L/kg | 64 mL/min/kg
COc1ccc2c(c1)c(CC(=O)O)c(C)n2C(=O)c1ccc(Cl)cc1 [INDOMETHACIN] | 7.4 L/kg | 0.1 L/kg | 2 mL/min/kg | 0.26 L/kg | 13 mL/min/kg | 0.002 mL/min/kg | 1.8 L/kg | 0.43 mL/min/kg
NC1(C(=O)O)CC1 [1-Aminocyclopropane carboxylic acid] | 0.7 L/kg | 0.64 L/kg | 1.5 mL/min/kg | 0.73 L/kg | 3.1 mL/min/kg | 0.4 mL/min/kg | 0.72 L/kg | 3.2 mL/min/kg
C#C[C@]1(O)CC[C@H]2[C@@H]3CCc4cc(O)ccc4[C@H]3[C@@H](OC)C[C@@]21C [MOXESTROL] | 0.63 L/kg | 1.4 L/kg | 0.34 mL/min/kg | 0.24 L/kg | 3.2 mL/min/kg | 5.2 mL/min/kg | 1.8 L/kg | 52 mL/min/kg
NCC1(CC(=O)O)CCCCC1 [GABAPENTIN] | 0.16 L/kg | 1.2 L/kg | 1.8 mL/min/kg | 0.82 L/kg | 2.6 mL/min/kg | 2.3 mL/min/kg | 0.68 L/kg | 9.5 mL/min/kg
CN1CCN(c2c(F)cc3c(=O)c(C(=O)O)cn(CCF)c3c2F)CC1 [FLEROXACIN] | 1.3 L/kg | 1.3 L/kg | 2.4 mL/min/kg | 1.5 L/kg | 4 mL/min/kg | 1.6 mL/min/kg | 1.2 L/kg | 5.7 mL/min/kg
CCC1(C)CC(=O)NC1=O (stereo not given) [ETHOSUXIMIDE] | 0.59 L/kg | 0.68 L/kg | 0.15 mL/min/kg | 0.63 L/kg | 0.33 mL/min/kg | 0.42 mL/min/kg | 0.82 L/kg | 3.1 mL/min/kg
C[C@@H](O)[C@H]1C(=O)N2C(C(=O)O)=C(COC(N)=O)S[C@H]12 | 0.23 L/kg | 0.05 L/kg | 7.2 mL/min/kg | 0.25 L/kg | 4.7 mL/min/kg | 7.7 mL/min/kg | 0.15 L/kg | 16 mL/min/kg
O=c1[nH]cnc2c1ncn2[C@H]1CC[C@@H](CO)O1 [DIDANOSINE] | 0.95 L/kg | 0.99 L/kg | 14 mL/min/kg | 0.81 L/kg | 12 mL/min/kg | 23 mL/min/kg | 0.92 L/kg | 66 mL/min/kg
CO/N=C(\C(=O)N[C@@H]1C(=O)N2C(C(=O)[O-])=C(C[N+]34CCC(C(N)=O)(CC3)CC4)CS[C@H]12)c1nsc(N)n1 [CEFCLIDIN] | 0.23 L/kg | 0.22 L/kg | 1.5 mL/min/kg | 0.17 L/kg | 3.4 mL/min/kg | 3.6 mL/min/kg | 0.28 L/kg | 8.8 mL/min/kg
O=C1NC(=O)C(c2ccccc2)(c2ccccc2)N1 [PHENYTOIN] | 1 L/kg | 0.64 L/kg | 0.57 mL/min/kg | 1.4 L/kg | 7.9 mL/min/kg | 2.8 mL/min/kg | 7.8 L/kg | 7.4 mL/min/kg
CCOC(=O)C1(c2ccccc2)CCN(C)CC1 [MEPERIDINE] | 2.4 L/kg | 24 L/kg | 17 mL/min/kg | 4.4 L/kg | 1 mL/min/kg | 43 mL/min/kg | 5.9 L/kg | 253 mL/min/kg
CO/N=C(\C(=O)N[C@@H]1C(=O)N2C(C(=O)O)=C(CSc3nc(=O)c(=O)[nH]n3C)CS[C@H]12)c1csc(N)n1 [CEFTRIAXONE] | 0.24 L/kg | 0.18 L/kg | 0.24 mL/min/kg | 0.16 L/kg | 0.45 mL/min/kg | 4 mL/min/kg | 0.11 L/kg | 4 mL/min/kg
CCCC(CCC)C(=O)O [VALPROIC ACID] | 0.31 L/kg | 0.66 L/kg | 0.11 mL/min/kg | 0.15 L/kg | 4 mL/min/kg | 3 mL/min/kg | 0.15 L/kg | 4.2 mL/min/kg
